Experimental findings from US6773803B2, “Far-infrared emission powder with antibacterial activity and bio-wave steel plate coated with resin containing same” (Posco, priority 2000, dated 2004) are described below.

The series in a line: pH of aqueous solution after adding 30 g powder to 100 g water. To be noted: powder dissolved in distilled water, result in words. The class given is physicochemical. On the procedure: After the addition of the alkaline oxides or hydroxides, the aqueous solutions were measured for pH and the results are given in Table 1.

Structures are written as SMILES.

For the compound `[O]=[Ti]=[O]` [Material No. C. 1, TiO2], the “influence on the pH of the distilled water” value was “no influence on the pH”.
In the case of `[O]=[Al][O][Al]=[O]` [Material No. C. 2, Al2O3] it was “no influence on the pH”; in that of `O=[Si]=O` [Material No. C. 3, SiO2], “no influence on the pH”.
